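Dose response: 5 concentrations. Exposure: 48 h. Format: 96-well plates. Endpoint: linear interpolation; highest concentration if not reached. GI50 is the concentration that inhibits growth by half. The concentration for full growth arrest is given as TGI.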 Where a SMILES comes first, the peptide text is derived from it. Bounds are passed on as bounds.

Test in all cases: growth of human tumour cells (NCI), 48 h
The test system of assay [1] is SK-MEL-5 melanoma.
Assay [2] relates to RXF 393 renal.
Assay [3] has as its system DU-145 prostate.
Assay [4] relates to HCC-2998 colon.
The test system of assay [5] is NCI/ADR-RES ovarian.
In assay [6] the test system is OVCAR-5 ovarian.
Assay [7] concerns MDA-MB-231 breast.
Assay [8] relates to HCT-15 colon.
Assay [9] concerns SNB-75 CNS.
Assay [10] concerns EKVX NSCLC.

`COC(Cc1cc(C(O)(c2ccc(C(C)(C)C)cc2)c2cc(CC(OC)(c3cc(C(OC)(c4ccc(C(C)(C)C)cc4)c4ccc(C(C)(C)C)cc4)c(C)cc3C)c3cc(C(OC)(c4ccc(C(C)(C)C)cc4)c4ccc(C(C)(C)C)cc4)c(C)cc3C)c(C)cc2C)c(C)cc1C)(c1cc(C(OC)(c2ccc(C(C)(C)C)cc2)c2ccc(C(C)(C)C)cc2)c(C)cc1C)c1cc(C(OC)(c2ccc(C(C)(C)C)cc2)c2ccc(C(C)(C)C)cc2)c(C)cc1C`: the TGI in assay [1], in [2], in assay [3], in [4], in assay [5] and in assay [6] was > 75 µM in each case. Besides, the TGI in [7], in [8], in assay [9] and in assay [10] was > 75 µM throughout.
With `CC(C)(C)c1ccc(NS(=O)(=O)c2ccc(N)cc2)cc1`, the TGI in assay [1] turned out to be 32.5 µM; in [2] it was 94.1 µM; in assay [3], 89.5 µM; in [4] it was 39.5 µM; in [5], 75.9 µM; in assay [6], 84.3 µM. Besides, the TGI in assay [7] was 68.1 µM; in [8], > 100 µM; in [9], 92.7 µM; in [10], 71.8 µM.
For `Cc1cc(C)n(CN(CCCCO)Cn2nc(C)cc2C)n1`, the TGI was > 100 µM in assay [1]; 39 µM in assay [2]; 53.6 µM in assay [3]; 39 µM in assay [5]; 51.1 µM in [6]; 78.6 µM in assay [7]. For the same compound, the results for the TGI in assay [8] and in [10] were 34.7 µM and 76.3 µM, respectively.
`COc1ccc2c(c1)C(=O)c1c-2n(CCCN=[N+]=[N-])c(=O)c2cc([N+](=O)[O-])ccc12`: the GI50 in [1] is 0.0106 µM; in assay [2], 0.00139 µM; in assay [4] it was 0.013 µM; in [7], 33.3 µM; in assay [9], 3.47 µM. Further, the TGI in [1] is 0.0849 µM; in assay [5] it was > 100 µM; in assay [6], > 100 µM; in assay [7], > 100 µM; in [9], 20.5 µM; in [10] it was > 100 µM.
Consider `O=S(=O)(O)c1ccc(N=Nc2ccc(N=Nc3c(O)ccc4ccc(S(=O)(=O)O)cc34)cc2)cc1`, for which the TGI in assay [1], in assay [2], in assay [3], in assay [4], in assay [5] and in assay [6] was > 100 µM each time. Besides, the TGI in [7], in assay [8] and in assay [10] was > 100 µM in each case.
As to `O=C(N/N=C\c1ccc(N(CCCl)CCCl)cc1)c1cccnc1`, the GI50 in [1] was 36.3 µM; in assay [2], 19.7 µM; in [3], 11.4 µM; in [4] it was 55.5 µM; in [5], 28.3 µM; in assay [6] it was > 100 µM. Besides, the GI50 in assay [7] is 24.8 µM; in assay [8] it was 37.1 µM; in [9] it was 33.7 µM; in assay [10] it was > 100 µM. For the same compound, the TGI is > 100 µM in [1]; 85.7 µM in assay [2]; > 100 µM in [3]; > 100 µM in assay [4]; > 100 µM in assay [5]; > 100 µM in [6]. The TGI in assay [7], in assay [8], in assay [9] and in assay [10] was > 100 µM each time.
On to `CCOC(=O)NC(=O)c1cn(CCN(CCO)C(=O)NCCCCCCNC(=O)N(CCO)CCn2cc(C(=O)NC(=O)OCC)c(=O)[nH]c2=O)c(=O)[nH]c1=O`, for which the TGI in assay [1], in [2], in assay [4], in [5], in assay [6] and in assay [8] was > 100 µM each time. Further, the TGI in assay [9] and in assay [10] was > 100 µM each time.
As for `CCCC[n+]1ccn(-c2nc3ccccc3n2C)c1`, the TGI in assay [1], in assay [2], in [4], in assay [6], in [8] and in [9] was > 100 µM in each case. Further, the TGI in assay [10] is > 100 µM.
For `C/C=C(\C)C(=O)OC1C2C(C)=CC(=O)C(O)C2(C)C2C3(O)OCC24C1OC(=O)C(OC(C)=O)C4C(C)C3O` (stereo not given), the TGI in [2] was 0.063 µM; in assay [4] it was 0.0928 µM; in [5], 31.2 µM; in assay [6], 1.53 µM; in assay [8] it was 0.328 µM; in assay [9], 0.055 µM. Further, in assay [10], the TGI is 0.103 µM.
For `CC1=C/C(=N\NS(=O)(=O)c2ccc([N+](=O)[O-])cc2)CC(C)(C)C1`, the TGI in assay [1], in assay [2], in assay [3], in [4], in assay [5] and in assay [6] was > 100 µM each time. In addition, the TGI in assay [7], in assay [8] and in [10] was > 100 µM in each case.
On to `COc1cc(/C=C2\C(=O)Nc3ccc(Cl)cc32)cc(OC)c1OC`, for which the GI50 was 12.7 µM in assay [1]; 1.82 µM in assay [2]; 5.82 µM in assay [4]; 7.29 µM in assay [5]; 21.2 µM in assay [6]; 11.4 µM in assay [7]. The results for the GI50 in [8], in assay [9] and in [10] were 9.16 µM, 7 µM and 13.8 µM, respectively. For the same compound, the TGI in assay [1] was > 100 µM; in [2], 8.22 µM; in assay [4] it was 61.2 µM; in assay [5] it was 59.3 µM; in [6], 62.3 µM; in assay [7], 37.3 µM. The TGI is > 100 µM in [8], 21.8 µM in assay [9] and > 100 µM in assay [10].
For the compound `O=C([O-])c1ccccc1Nc1ccccc1C(=O)[O-].[OH3+].[Zn+2]`, the TGI in [1] is 62.3 µM; in [2], 42.7 µM; in assay [4] it was > 100 µM; in [6], > 100 µM; in assay [8] it was > 100 µM; in assay [9], 37.2 µM. Also, in [10], the TGI is 65.8 µM.
As to `COc1cc2c(c(OC)c1OC)-c1ccc(OC)c(=O)cc1C(NC(=O)CCCCCNc1ccc(N=[N+]=[N-])cc1[N+](=O)[O-])CC2` (stereo not given), the TGI in assay [1] is < 0.01 µM; in [2], 6.67 µM; in assay [3], 0.354 µM; in [5] it was 5.62 µM; in [6] it was 31.4 µM; in assay [7], < 0.01 µM. For the same compound, the TGI amounted to 0.245 µM in assay [8] and 0.644 µM in assay [10].
For `N#CC1(C#N)C(=O)c2ccncc2C1=O`, the TGI in assay [1], in assay [2], in assay [3], in assay [4], in assay [5] and in assay [6] was > 100 µM throughout. Further, the TGI in [7], in [8], in assay [9] and in [10] was > 100 µM each time.
As to `CCCCC1Nc2ccccc2-c2ccnc(Cl)c21` (stereo not given), the TGI stood at 30.3 µM in [1]; 40.8 µM in assay [2]; 50.3 µM in assay [3]; 69.4 µM in [4]; 99.6 µM in [5]; 43.8 µM in [7]. The TGI worked out at 44.4 µM in assay [8], 52.3 µM in assay [9] and 60.5 µM in [10].
As to `Brc1ccc2nc(-c3cccs3)nc(N3CCN(c4ccccc4)CC3)c2c1`, the TGI in [1], in assay [3], in [4], in assay [5], in assay [6] and in assay [7] was > 100 µM in each case. Also, the TGI in assay [8], in [9] and in assay [10] was > 100 µM throughout.
On to `N=C1c2ccccc2C(=O)c2c(NCCNCCO)ccc(O)c21`, for which the TGI in assay [1] is 19.3 µM; in [2], 18 µM; in assay [4], 21.4 µM; in [6] it was 84.7 µM; in assay [8], > 63 µM; in [9], 49.3 µM. The compound further showed a TGI in [10] of 46.9 µM.
With `COC1=CC(c2ccc[nH]2)=N/C1=C\c1[nH]c(C)c(CC(=O)NCc2ccccc2)c1C`, the GI50 is 1.53 µM in assay [1]; 1.55 µM in assay [2]; 1.39 µM in [3]; 1.55 µM in [4]; 1.06 µM in [8]; 1.51 µM in assay [9]. The GI50 in assay [10] is 1.06 µM. Also, the TGI in [1] is 2.89 µM; in [2], 2.95 µM; in assay [3], 2.82 µM; in assay [4] it was 3.07 µM; in assay [8], 2.45 µM; in [9] it was 2.89 µM. In assay [10], the TGI was found to be 2.47 µM.
With `CC(=O)NC(CS)C(=O)NC(CO)C(=O)NC(CO)C(=O)NC(Cc1c[nH]c2ccccc12)C(=O)N1CCCC1C(=O)NC(CO)C(=O)NC(Cc1c[nH]c2ccccc12)C(=O)NC(Cc1c[nH]cn1)C(=O)NC(CO)C(=O)NC(Cc1c[nH]c2ccccc12)C(=O)NCC(=O)NCC(=O)NC(C)C(=O)NC(CCC(N)=O)C(=O)NC(CCCCN)C(=O)NC(C)C(=O)NC(CCCNC(=N)N)C(=O)NC(CCCCN)C(N)=O` (stereo not given) (Ac-CSSWPSWHSWGGAQKARK-NH2; configuration not given here), the TGI was 22.4 µM in assay [1]; 24.9 µM in assay [2]; > 50 µM in assay [3]; > 50 µM in assay [5]; > 50 µM in [6]; 19.7 µM in assay [7]. Also, the TGI in assay [8] is > 50 µM; in assay [9], 42.1 µM; in assay [10] it was > 50 µM.
Take `COc1cc(-c2n/c(=C\c3c(O)[nH]c4ccccc34)cc3c2=Nc2ccccc2-3)ccc1F`: the GI50 was 4.45 µM in [1]; 3.61 µM in assay [2]; 7.3 µM in [3]; 4.32 µM in [4]; 5.78 µM in assay [5]; 22.2 µM in assay [6]. Also, the GI50 is 3.91 µM in assay [7], 17.2 µM in [8], 16.2 µM in [9] and 20.9 µM in assay [10]. The TGI in assay [1] was 24.1 µM; in assay [2] it was 22.2 µM; in assay [3] it was 25.5 µM; in assay [4] it was > 100 µM; in assay [5], 43 µM; in [6] it was 90.8 µM. Further, the TGI in assay [7] was 16.8 µM; in assay [8] it was > 100 µM; in [9], 63.6 µM; in assay [10], > 100 µM.

These data come from PubChem BioAssay (NCI).
